Results from publication PMC12495306 (RSC Medicinal Chemistry, 2025).

How the values were obtained:
HEK293 cells = assay: Cell viability / cytotoxicity assay; type: cell-based, human; conditions: CellTiter-Glo, 18 h
ARα2B = molecular target: T1, ARα2B (Homo sapiens, UniProt P18089); assay: ARα2B radioligand; type: binding; conditions: for inhibition at 10 µM: read-out: ARα2B binding (% inhibition at 10 μM)
T1 sequence (P18089 1-450): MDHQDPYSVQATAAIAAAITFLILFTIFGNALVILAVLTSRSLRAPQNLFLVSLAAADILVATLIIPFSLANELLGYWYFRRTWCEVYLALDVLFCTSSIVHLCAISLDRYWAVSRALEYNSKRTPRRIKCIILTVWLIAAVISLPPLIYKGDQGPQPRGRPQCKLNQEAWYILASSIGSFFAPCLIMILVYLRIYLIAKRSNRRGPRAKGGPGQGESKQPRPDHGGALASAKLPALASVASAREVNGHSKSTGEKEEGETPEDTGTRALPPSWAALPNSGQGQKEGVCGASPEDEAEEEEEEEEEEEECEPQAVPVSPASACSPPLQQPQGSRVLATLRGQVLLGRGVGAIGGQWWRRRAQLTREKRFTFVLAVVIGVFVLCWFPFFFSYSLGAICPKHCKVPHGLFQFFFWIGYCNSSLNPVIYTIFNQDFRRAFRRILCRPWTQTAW

ARα2A = molecular target: T2, ARα2A (Homo sapiens, UniProt P08913); assay: ARα2A radioligand; type: binding; conditions: ARα2A binding Ki, competition with 3H-Rauwolscinein; concentration response
T2 sequence (P08913 1-465): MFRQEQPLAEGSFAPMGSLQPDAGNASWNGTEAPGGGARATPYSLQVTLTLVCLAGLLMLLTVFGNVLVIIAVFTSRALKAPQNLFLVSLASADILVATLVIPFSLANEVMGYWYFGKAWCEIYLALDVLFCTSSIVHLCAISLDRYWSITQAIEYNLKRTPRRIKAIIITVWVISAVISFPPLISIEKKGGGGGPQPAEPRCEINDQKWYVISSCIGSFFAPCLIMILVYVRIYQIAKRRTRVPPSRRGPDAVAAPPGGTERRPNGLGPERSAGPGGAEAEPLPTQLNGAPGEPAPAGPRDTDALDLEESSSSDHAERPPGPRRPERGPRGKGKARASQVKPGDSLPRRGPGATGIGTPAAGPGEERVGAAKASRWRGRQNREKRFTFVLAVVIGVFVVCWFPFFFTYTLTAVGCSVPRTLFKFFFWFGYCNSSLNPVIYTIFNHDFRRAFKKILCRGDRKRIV

ARα2C = molecular target: T3, ARα2C (Homo sapiens, UniProt P18825); assay: ARα2C radioligand; type: binding
T3 sequence (P18825 1-462): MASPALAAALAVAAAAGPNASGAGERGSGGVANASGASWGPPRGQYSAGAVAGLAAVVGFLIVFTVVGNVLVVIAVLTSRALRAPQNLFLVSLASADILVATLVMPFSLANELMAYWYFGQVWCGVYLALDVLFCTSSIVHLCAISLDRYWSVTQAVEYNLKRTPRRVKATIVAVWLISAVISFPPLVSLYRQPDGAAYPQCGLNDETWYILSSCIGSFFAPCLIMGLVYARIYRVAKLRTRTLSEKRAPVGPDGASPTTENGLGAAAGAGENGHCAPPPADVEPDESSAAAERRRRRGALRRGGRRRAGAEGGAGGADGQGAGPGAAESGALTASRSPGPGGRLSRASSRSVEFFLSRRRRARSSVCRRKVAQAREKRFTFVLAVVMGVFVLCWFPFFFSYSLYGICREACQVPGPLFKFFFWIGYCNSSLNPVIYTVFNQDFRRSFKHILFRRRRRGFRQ

[1] = Aqueous solubility, shake flask method; type: physicochemical; conditions: pH 7.4, PBS, 24 h

Structure (SMILES) | Cytotoxicity LD50 (HEK293 cells) [µM] | inhibition at 10 µM (ARα2B) [%] | Ki (ARα2A) [nM] | Ki (ARα2B) [nM] | Ki (ARα2C) [nM] | Aqueous solubility [1] [µM]
C[C@H]1N=C(c2ccccc2F)c2cc(Br)ccc2NC1=O [Compound 1, (3R)-7-Bromo-5-(2-fluorophenyl)-3-methyl-1,3-dihydro-2H-1,4-benzodiazepin-2-one] | >300 | -6 |  |  |  | 
Cc1ccc(Nc2ccc3c(c2)C(c2ccccc2F)=NC(C)C(=O)N3)cc1 (stereo not shown) [Compound 3, 5-(2-Fluorophenyl)-3-methyl-7-(4-methylanilino)-1,3-dihydro-2H-1,4-benzodiazepin-2-one] | 62 ± 15 | 61 | 2280 | 4640 | 2160 | 
COc1ccc(Nc2ccc3c(c2)C(c2ccccc2F)=NC(C)C(=O)N3)cc1 (stereo not shown) [Compound 4, 5-(2-Fluorophenyl)-7-(4-methoxyanilino)-3-methyl-1,3-dihydro-2H-1,4-benzodiazepin-2-one] | 87 ± 32 | 41 | 2070 |  | 2080 | 
CC1N=C(c2ccccc2F)c2cc(Nc3ccc(Cl)cc3)ccc2NC1=O (stereo not shown) [Compound 5, 7-(4-Chloroanilino)-5-(2-fluorophenyl)-3-methyl-1,3-dihydro-2H-1,4-benzodiazepin-2-one] | 87 ± 36 | 81 | 2080 | 1410 | 1640 | 
CC1N=C(c2ccccc2F)c2cc(Nc3ccc([N+](=O)[O-])cc3)ccc2NC1=O (stereo not shown) [Compound 6, 5-(2-Fluorophenyl)-3-methyl-7-(4-nitroanilino)-1,3-dihydro-2H-1,4-benzodiazepin-2-one] | 61 ± 10 | 36 | 2620 |  |  | 
CSc1ccc(Nc2ccc3c(c2)C(c2ccccc2F)=NC(C)C(=O)N3)cc1 (stereo not shown) [Compound 7, 5-(2-Fluorophenyl)-3-methyl-7-((4-(methylthio)phenyl)amino)-1,3-dihydro-2H-1,4-benzodiazepin-2-one] | 63 ± 12 | 41 | 3300 |  | 2410 | 
CC1N=C(c2ccccc2F)c2cc(Nc3ccc(S(C)(=O)=O)cc3)ccc2NC1=O (stereo not shown) [Compound 8, 5-(2-Fluorophenyl)-7-(4-methanesulfonylanilino)-3-methyl-1,3-dihydro-2H-1,4-benzodiazepin-2-one] | >150 | -5 |  |  |  | 
CC1N=C(c2ccccc2F)c2cc(Nc3ccc(C#N)cc3)ccc2NC1=O (stereo not shown) [Compound 9, 7-(4-Cyanoanilino)-5-(2-fluorophenyl)-3-methyl-1,3-dihydro-2H-1,4-benzodiazepin-2-one] | 83 ± 29 | 23 |  |  |  | 
CC1N=C(c2ccccc2F)c2cc(Nc3ccc(O)cc3)ccc2NC1=O (stereo not shown) [Compound 10, 5-(2-Fluorophenyl)-7-((4-hydroxyphenyl)amino)-3-methyl-1,3-dihydro-2H-1,4-benzodiazepin-2-one] | 135 ± 26 | 52 |  | 4180 |  | 197.9 ± 4.04
COC(=O)c1ccc(Nc2ccc3c(c2)C(c2ccccc2F)=NC(C)C(=O)N3)cc1 (stereo not shown) [Compound 11, 5-(2-Fluorophenyl)-7-(4-methoxycarbonylanilino)-3-methyl-1,3-dihydro-2H-1,4-benzodiazepin-2-one] | 88 ± 17 | 44 | 2250 |  | 1540 | 
CC1N=C(c2ccccc2F)c2cc(Nc3ccc(C(F)(F)F)cc3)ccc2NC1=O (stereo not shown) [Compound 12, 5-(2-Fluorophenyl)-7-(4-trifluoromethylanilino)-3-methyl-1,3-dihydro-2H-1,4-benzodiazepin-2-one] | >150 | 38 | 2590 |  |  | 
CC1N=C(c2ccccc2F)c2cc(Nc3ccccc3C#N)ccc2NC1=O (stereo not shown) [Compound 13, 7-(2-Cyanoanilino)-5-(2-fluorophenyl)-3-methyl-1,3-dihydro-2H-1,4-benzodiazepin-2-one] | >150 | 29 |  |  |  | 
CC1N=C(c2ccccc2F)c2cc(Nc3ccccc3F)ccc2NC1=O (stereo not shown) [Compound 14, 7-(2-Fluoroanilino)-5-(2-fluorophenyl)-3-methyl-1,3-dihydro-2H-1,4-benzodiazepin-2-one] | 90 ± 27 | 82 | 2240 | 1280 | 2140 | 26.0 ± 2.10
CCc1ccccc1Nc1ccc2c(c1)C(c1ccccc1F)=NC(C)C(=O)N2 (stereo not shown) [Compound 16, 7-(2-Ethylanilino)-5-(2-fluorophenyl)-3-methyl-1,3-dihydro-2H-1,4-benzodiazepin-2-one] | >300 | -2 |  |  |  | 
Cc1cccc(Nc2ccc3c(c2)C(c2ccccc2F)=NC(C)C(=O)N3)c1 (stereo not shown) [Compound 18, 5-(2-Fluorophenyl)-3-methyl-7-(3-methylanilino)-1,3-dihydro-2H-1,4-benzodiazepin-2-one] | 109 ± 12 | 87 | 2080 | 1670 | 1180 | 
CC1N=C(c2ccccc2F)c2cc(Nc3cccc(C#N)c3)ccc2NC1=O (stereo not shown) [Compound 19, 7-(3-Cyanoanilino)-5-(2-fluorophenyl)-3-methyl-1,3-dihydro-2H-1,4-benzodiazepin-2-one] | 165 ± 27 | 57 |  | 3250 |  | 
Cc1ccc(Nc2ccc3c(c2)C(c2ccccc2F)=NC(C)C(=O)N3)c(C)c1 (stereo not shown) [Compound 20, 5-(2-Fluorophenyl)-7-(2,4-dimethylanilino)-3-methyl-1,3-dihydro-2H-1,4-benzodiazepin-2-one] | 88 ± 22 | 33 |  |  |  | 
CC1N=C(c2ccccc2F)c2cc(N(C)c3ccccc3)ccc2NC1=O (stereo not shown) [Compound 21, 5-(2-Fluorophenyl)-7-(N-methylanilino)-3-methyl-1,3-dihydro-2H-1,4-benzodiazepin-2-one] | 158 ± 27 | 47 |  |  |  | 
CC1N=C(c2ccccc2F)c2cc(N3CCOCC3)ccc2NC1=O (stereo not shown) [Compound 22, 5-(2-Fluorophenyl)-3-methyl-7-(morpholin-4-yl)-1,3-dihydro-2H-1,4-benzodiazepin-2-one] | >300 | 27 |  |  |  | 
CC1N=C(c2ccccc2F)c2cc(N3CCCCC3)ccc2NC1=O (stereo not shown) [Compound 23, 5-(2-Fluorophenyl)-3-methyl-7-(piperidin-1-yl)-1,3-dihydro-2H-1,4-benzodiazepin-2-one] | >300 | 61 |  |  |  | 
CC1N=C(c2ccccc2F)c2cc(NCc3ccccc3)ccc2NC1=O (stereo not shown) [Compound 24, 7-(Benzylamino)-5-(2-fluorophenyl)-3-methyl-1,3-dihydro-2H-1,4-benzodiazepin-2-one] | >150 | 46 |  |  |  | 
CC1N=C(c2ccccc2F)c2cc(NC(C)(C)C)ccc2NC1=O (stereo not shown) [Compound 25, 7-(tert-Butylamino)-5-(2-fluorophenyl)-3-methyl-1,3-dihydro-2H-1,4-benzodiazepin-2-one] | >300 | 40 |  |  |  | 393.6 ± 10.40
CC1N=C(c2ccccc2F)c2cc(NC3CCCCC3)ccc2NC1=O (stereo not shown) [Compound 26, 7-(Cyclohexylamino)-5-(2-fluorophenyl)-3-methyl-1,3-dihydro-2H-1,4-benzodiazepin-2-one] | >300 | 64 |  |  |  | 
CC1N=C(c2ccccc2F)c2cc(N(C)C)ccc2NC1=O (stereo not shown) [Compound 27, 7-(Dimethylamino)-5-(2-fluorophenyl)-3-methyl-1,3-dihydro-2H-1,4-benzodiazepin-2-one] | >300 | 45 |  |  |  | 
